Test results published in the supplement of paper PMC10307832.

Key:
Experiment in all cases: relative viability (nuclei count vs DMSO), 5 days (fraction); higher = more cells survive
[1] = test system: A549
Method in brief: (§1)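 Lung cancer cell lines were seeded in 1536-well plates and dosed by pin tool the next day, with either a single drug or a fixed anchor-drug dose combined with five library-drug doses (not always all listed) spaced in √10 steps. Five days later, one step fixed the cells and stained their nuclei (final 0.05% Triton X-100, 1% formaldehyde, 1 ug/ml Hoechst), and nuclei were counted on 4× images. Relative viability is the nuclei count in treated wells divided by the count in vehicle wells, and each value is the median of duplicate plates.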

[2] = test system: Calu-6
Method in brief: as §1

[3] = test system: EBC-1
Method in brief: as §1

[4] = test system: IA-LM
Method in brief: as §1

[5] = test system: LOU-NH91
Method in brief: as §1

[6] = test system: NCI-H1299
Method in brief: as §1

[7] = test system: NCI-H1703
Method in brief: as §1

[8] = test system: NCI-H2009
Method in brief: as §1

[9] = test system: NCI-H2405
Method in brief: as §1

[10] = test system: NCI-H647
Method in brief: as §1

Compound `CCNC(=O)c1noc(-c2cc(C(C)C)c(O)cc2O)c1-c1ccc(CN2CCOCC2)cc1` [Luminespib] + CS(=O)(=O)N1CCN(Cc2cc3nc(-c4cccc5[nH]ncc45)nc(N4CCOCC4)c3s2)CC1 [Pictilisib] (partner 1 µM) has a relative viability ([1]; first compound 0.002 µM) of 0.536, a relative viability ([1]; first compound 0.006325 µM) of 0.517 and a relative viability ([1]; first compound 0.02 µM) of 0.152. For the same compound, the relative viability ([1]; first compound 0.06325 µM) was 0.0437, the relative viability ([1]; first compound 0.2 µM) was 0.0569 and the relative viability ([2]; first compound 0.002 µM) was 1.04. It also gave a relative viability ([2]; first compound 0.006325 µM) of 0.847, a relative viability ([2]; first compound 0.02 µM) of 1 and a relative viability ([2]; first compound 0.06325 µM) of 0.119. The relative viability ([2]; first compound 0.2 µM) was 0.112, the relative viability ([3]; first compound 0.002 µM) was 0.471 and the relative viability ([3]; first compound 0.006325 µM) was 0.365. For the same compound, the relative viability ([3]; first compound 0.02 µM) was 0.248, the relative viability ([3]; first compound 0.06325 µM) was 0.118 and the relative viability ([3]; first compound 0.2 µM) was 0.128. It also gave a relative viability ([4]; first compound 0.002 µM) of 0.324, a relative viability ([4]; first compound 0.006325 µM) of 0.369 and a relative viability ([4]; first compound 0.02 µM) of 0.159. For the same compound, the relative viability ([4]; first compound 0.06325 µM) was 0.0483, the relative viability ([4]; first compound 0.2 µM) was 0.0407 and the relative viability ([5]; first compound 0.002 µM) was 0.53. For the same compound, the relative viability ([5]; first compound 0.006325 µM) was 0.566, the relative viability ([5]; first compound 0.02 µM) was 0.469 and the relative viability ([5]; first compound 0.06325 µM) was 0.367. It also gave a relative viability ([5]; first compound 0.2 µM) of 0.358, a relative viability ([6]; first compound 0.002 µM) of 0.874 and a relative viability ([6]; first compound 0.006325 µM) of 0.698. For the same compound, the relative viability ([6]; first compound 0.02 µM) was 0.767, the relative viability ([6]; first compound 0.06325 µM) was 0.0703 and the relative viability ([6]; first compound 0.2 µM) was 0.0666. The relative viability ([7]; first compound 0.002 µM) was 0.251, the relative viability ([7]; first compound 0.006325 µM) was 0.244 and the relative viability ([7]; first compound 0.02 µM) was 0.179. It also gave a relative viability ([7]; first compound 0.06325 µM) of 0.179, a relative viability ([7]; first compound 0.2 µM) of 0.165 and a relative viability ([8]; first compound 0.002 µM) of 0.855. It also gave a relative viability ([8]; first compound 0.006325 µM) of 0.819, a relative viability ([8]; first compound 0.02 µM) of 0.583 and a relative viability ([8]; first compound 0.06325 µM) of 0.0684. For the same compound, the relative viability ([8]; first compound 0.2 µM) was 0.0548, the relative viability ([9]; first compound 0.002 µM) was 0.514 and the relative viability ([9]; first compound 0.006325 µM) was 0.298. For the same compound, the relative viability ([9]; first compound 0.02 µM) was 0.301, the relative viability ([9]; first compound 0.06325 µM) was 0.147 and the relative viability ([9]; first compound 0.2 µM) was 0.142. It also gave a relative viability ([10]; first compound 0.002 µM) of 0.511, a relative viability ([10]; first compound 0.006325 µM) of 0.439 and a relative viability ([10]; first compound 0.02 µM) of 0.249. For the same compound, the relative viability ([10]; first compound 0.06325 µM) was 0.0858 and the relative viability ([10]; first compound 0.2 µM) was 0.0845.
For `Cc1csc(=NC2CCCCC2)n1/N=C/c1ccc(O)c(O)c1O` [MIM1] + C[C@]1(O)C[C@@H](c2nc(-c3ccc4ccc(-c5ccccc5)nc4c3)c3c(N)nccn32)C1 [Linsitinib] (partner 1 µM), the relative viability ([1]; first compound 0.2 µM) was 0.564, the relative viability ([1]; first compound 0.6325 µM) was 0.638 and the relative viability ([1]; first compound 2 µM) was 0.618. It also gave a relative viability ([1]; first compound 6.325 µM) of 0.504, a relative viability ([1]; first compound 20 µM) of 0.515 and a relative viability ([2]; first compound 0.6325 µM) of 0.918. The relative viability ([2]; first compound 2 µM) was 0.897, the relative viability ([2]; first compound 6.325 µM) was 0.561 and the relative viability ([2]; first compound 20 µM) was 0.286. It also gave a relative viability ([3]; first compound 0.2 µM) of 0.921, a relative viability ([3]; first compound 0.6325 µM) of 0.829 and a relative viability ([3]; first compound 2 µM) of 0.871. The relative viability ([3]; first compound 6.325 µM) was 0.605, the relative viability ([3]; first compound 20 µM) was 0.318 and the relative viability ([4]; first compound 0.2 µM) was 0.563. It also gave a relative viability ([4]; first compound 0.6325 µM) of 0.36, a relative viability ([4]; first compound 2 µM) of 0.502 and a relative viability ([4]; first compound 6.325 µM) of 0.0829. The relative viability ([4]; first compound 20 µM) was 0.105, the relative viability ([5]; first compound 0.2 µM) was 0.882 and the relative viability ([5]; first compound 0.6325 µM) was 0.978. For the same compound, the relative viability ([5]; first compound 2 µM) was 0.728, the relative viability ([5]; first compound 6.325 µM) was 0.851 and the relative viability ([5]; first compound 20 µM) was 0.592. For the same compound, the relative viability ([6]; first compound 0.2 µM) was 0.98, the relative viability ([6]; first compound 0.6325 µM) was 0.93 and the relative viability ([6]; first compound 2 µM) was 0.963. For the same compound, the relative viability ([6]; first compound 6.325 µM) was 0.919, the relative viability ([6]; first compound 20 µM) was 0.667 and the relative viability ([7]; first compound 0.2 µM) was 0.759. For the same compound, the relative viability ([7]; first compound 0.6325 µM) was 1.31, the relative viability ([7]; first compound 2 µM) was 0.701 and the relative viability ([7]; first compound 6.325 µM) was 0.144. It also gave a relative viability ([7]; first compound 20 µM) of 0.095, a relative viability ([8]; first compound 0.2 µM) of 1.25 and a relative viability ([8]; first compound 0.6325 µM) of 1.18. For the same compound, the relative viability ([8]; first compound 2 µM) was 1.18, the relative viability ([8]; first compound 6.325 µM) was 1.06 and the relative viability ([8]; first compound 20 µM) was 1.05. It also gave a relative viability ([9]; first compound 0.2 µM) of 0.906, a relative viability ([9]; first compound 0.6325 µM) of 1.08 and a relative viability ([9]; first compound 2 µM) of 0.946. The relative viability ([9]; first compound 6.325 µM) was 0.778, the relative viability ([9]; first compound 20 µM) was 0.742 and the relative viability ([10]; first compound 0.2 µM) was 1.28. It also gave a relative viability ([10]; first compound 0.6325 µM) of 1.07, a relative viability ([10]; first compound 2 µM) of 1.32 and a relative viability ([10]; first compound 6.325 µM) of 0.807. For the same compound, the relative viability ([10]; first compound 20 µM) was 0.868.
